Read-outs that look alike come from different tables or passages of the source. Marks after values point to notes of the source that are not given here. Non-standard residues stand in square brackets, D forms with d. Residues, ends and D or L forms follow the SMILES beside them. Dmt = Cc1cc(O)cc(C)c1C[C@H](N)C(=O)O; d(β3hA) = C[C@@H](N)CC(=O)O
Assays:
delta-opioid receptor [1] = target: T1, delta-opioid receptor (Homo sapiens, UniProt P41143); assay: Calcium mobilization assay, CHO delta cells expressing GαqG66Di5; type: cell-based; parameters: expressed in transfected cells; host or cells: CHO cells co-expressing GαqG66Di5; details: inactive = inactive up to 10 µM; for Delta pEC50 (CL95%): calcium mobilization; for Delta α± SEM: intrinsic activity, Emax ratio to standard agonist DPDPE
T1 sequence (P41143 whole entry): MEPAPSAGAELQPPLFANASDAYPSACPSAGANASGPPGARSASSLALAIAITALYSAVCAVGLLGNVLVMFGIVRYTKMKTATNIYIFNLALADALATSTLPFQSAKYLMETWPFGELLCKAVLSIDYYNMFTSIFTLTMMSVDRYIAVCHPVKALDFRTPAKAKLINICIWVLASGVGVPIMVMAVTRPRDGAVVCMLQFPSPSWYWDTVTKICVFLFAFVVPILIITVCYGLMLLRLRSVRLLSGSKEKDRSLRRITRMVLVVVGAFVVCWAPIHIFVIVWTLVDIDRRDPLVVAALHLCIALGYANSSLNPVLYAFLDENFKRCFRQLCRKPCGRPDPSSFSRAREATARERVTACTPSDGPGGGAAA

delta-opioid receptor [2] = target: T1, delta-opioid receptor; assay: Radioligand binding, [3H]deltorphin-2 displacement, CHO cell membranes; parameters: purchased; host or cells: CHO cells (membranes)
[3] = target: mu receptor-β-arrestin 2 interaction (Homo sapiens, UniProt P35372); assay: BRET mu-β-arrestin 2 interaction assay (living SH-SY5Y cells, mu-RLuc/β-arrestin 2-RGFP), agonism
Chain of mu receptor-β-arrestin 2 interaction (P35372 whole entry): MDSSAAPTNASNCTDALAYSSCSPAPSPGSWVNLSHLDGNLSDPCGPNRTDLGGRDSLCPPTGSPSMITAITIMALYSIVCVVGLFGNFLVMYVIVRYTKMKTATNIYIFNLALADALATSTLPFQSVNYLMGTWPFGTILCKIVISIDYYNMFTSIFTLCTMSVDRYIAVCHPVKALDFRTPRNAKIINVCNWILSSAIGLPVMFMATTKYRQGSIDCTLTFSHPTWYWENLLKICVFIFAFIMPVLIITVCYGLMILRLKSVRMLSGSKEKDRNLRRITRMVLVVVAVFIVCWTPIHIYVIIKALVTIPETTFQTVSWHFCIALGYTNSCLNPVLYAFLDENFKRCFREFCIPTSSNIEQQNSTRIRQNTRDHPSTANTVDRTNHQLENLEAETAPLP
Description: (§1) SH-SY5Y cells stably co-expressing the fusoproteins mu-RLuc and Gβ1-RGFP or mu-RLuc and β-arrestin 2-RGFP were grown in DMEM/F12 (1:1) medium supplemented with 10% FBS, 2 mM L-Glutamine, 100 μg/mL hygromycin B, 400 μg/mL G418, 100 units/mL penicillin G, 100 μg/mL streptomycin and 1 μg/mL Fungizone at 37°C in a humidified atmosphere with of 5% CO2.
Mu- β-arrestin 2 interaction—Living SH-SY5Y cells expressing mu-RLuc and β-arrestin 2-RGFP were seeded at a cell density of 100,000 cells/well 24 h prior to the test. On the day of the experiment, medium was discarded, and cells were washed with PBS supplemented with 0.5 mM MgCl2, 0.9 mM CaCl2. Cells were subsequently incubated with 2 μM Prolume Purple Coelenterazine (NanoLight Technology, White Mountain, AZ; United States) for 10 min before bioluminescence reading.
(§2) In agonism experiments, ligands were added and incubated for 5 min before microplate reading. […] BRET ratios were computed as follow: RGFPCPS/RLucCPSligand−RGFPCPS/RLucCPSvehicle
(§3) Concentration-response curves to agonists were fitted to the four-parameter logistic non-linear regression model as follows: Effect=Basal+Emax−Basal/1+10^LogEC50−Logligand×HillSlope

[4] = Enzymatic degradation in rat brain homogenate; type: in vitro ADME; details: for 100 x k, rate constant of degradation: up to 60 min; for half-life at 0.25 mM: ln2/k, read-out: t1/2, degradation half-life
Description: Enzymatic degradation of EM-2 and the analogs was performed measuring their hydrolysis rates in the presence of rat brain homogenate. The homogenate was prepared prior to the experiment. Briefly, rat brains were homogenized in 20 volumes of Tris–HCl (50 mM, pH 7.4) using a Polytron and the obtained aliquots were stored at −80°C. In the experiment, aliquotes of brain homogenate (100 μL, 10 mg protein/mL) were incubated with 100 µL of a peptide (0.5 mM) over 0, 7.5; 15, 22.5; 30, and 60 min at 37°C, in a final volume of 200 µL. After the incubation the degradation reaction was stopped by placing the tube on ice and acidifying the content with 20 µL of HCl (1 M). The aliquots were centrifuged at 20,000 g for 10 min at 4°C. The supernatants were collected and filtered using Millex-GV syringe filters (Millipore). Then the analysis by HPLC on a Vydac C18 column (5 μm, 4.6 × 250 mm), using the solvent system of 0.1% TFA in water (A) and 80% acetonitrile in water containing 0.1% TFA (B) and a linear gradient of 0%–100% B over 25 min, was performed. Three independent experiments for each assay were carried out in duplicate. The rate constants of degradation (k) were obtained by the least square linear regression analysis of logarithmic peak areas [ln (A/AD)], where A—amount of remained peptide, AD—initial amount of peptide versus time. Degradation half-lives (t1/2) were calculated from the rate constants as ln2/k.

mu receptor = assay: Bias factor, mu-G protein vs mu-β-arrestin 2 (BRET), EM-2 as standard ligand; details: log10 units, towards G protein
[5] = n-Octanol/water partition coefficient (log P); type: physicochemical; details: n-octanol / 0.05 M HEPES buffer in 0.1 M NaCl, pH 7.4
Description: Determination of log P was performed according to the method described by ([Liu et al., 2006]). Peptides were dissolved in 0.05 M HEPES buffer in 0.1 M NaCl, pH 7.4, then an equal volume of n-octanol was added and mixtures were vortexed for 2 min. Samples were centrifuged at 4,000 rpm for 1 min. After separation, aqueous and octanol phases were used to quantify peptide content by RP-HPLC.
Octanol phase was lyophilized and reconstituted in 80% acetonitrile in water containing 0.1% TFA before RP-HPLC. All n-octanol/buffer distribution studies were performed in triplicate.

[6] = target: mu receptor-G protein interaction (Homo sapiens, UniProt P35372); assay: BRET mu-G protein interaction assay (membranes of SH-SY5Y cells, mu-RLuc/Gβ1-RGFP)
Chain of mu receptor-G protein interaction (P62871 whole entry): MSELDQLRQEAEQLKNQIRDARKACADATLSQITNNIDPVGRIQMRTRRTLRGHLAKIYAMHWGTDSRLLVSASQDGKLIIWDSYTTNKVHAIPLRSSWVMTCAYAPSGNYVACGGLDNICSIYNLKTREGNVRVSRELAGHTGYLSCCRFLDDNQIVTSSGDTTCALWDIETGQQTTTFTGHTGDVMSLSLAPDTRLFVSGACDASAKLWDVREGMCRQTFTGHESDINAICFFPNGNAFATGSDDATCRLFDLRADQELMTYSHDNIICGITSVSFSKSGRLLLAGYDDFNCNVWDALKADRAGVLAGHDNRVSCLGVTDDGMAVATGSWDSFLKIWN
Chain of mu receptor-G protein interaction (P35372 whole entry): as the sequence (P35372 whole entry) above
Description: as §1
Total protein in membrane preparations was determined by colorimetric method with the Quantum Protein-BCA kit (EuroClone, Pero (MI), IT) and measured using the multiplate reader Victor Nivo (PerkinElmer, Walthman, MA, United States). White opaque 96 wells microplates (PerkinElmer, Walthman, MA, United States) were used to carry out BRET assays. Cell membranes were thawed and resuspended in PBS supplemented with 0.02% BSA before the assay, and an amount of 5 μg of total protein was dispensed in each 96 well. All experiments were carried out at room temperature.
as §2, §3

human mu receptor = target: T2, human mu receptor (Homo sapiens, UniProt P35372); assay: Calcium mobilization assay, CHO mu cells expressing Gαqi5; type: cell-based; details: for mu α±SEM: intrinsic activity, Emax ratio to standard agonist EM-2
T2 construct: expressed in transfected cells; host or cells: CHO cells stably co-expressing Gαqi5
T2 sequence (P35372 whole entry): as above

[7] = target: T3, human recombinant mu opioid receptor (Homo sapiens, UniProt P35372); assay: Radioligand binding, [3H]DAMGO displacement, CHO cell membranes
T3 construct: purchased; host or cells: CHO cells (membranes)
T3 sequence (P35372 whole entry): as above

[8] = target: T4, human recombinant kappa opioid receptor (Homo sapiens, UniProt P41145); assay: Radioligand binding, [3H]U-69593 displacement, CHO cell membranes
T4 construct: purchased; host or cells: CHO cells (membranes)
T4 sequence (P41145 whole entry): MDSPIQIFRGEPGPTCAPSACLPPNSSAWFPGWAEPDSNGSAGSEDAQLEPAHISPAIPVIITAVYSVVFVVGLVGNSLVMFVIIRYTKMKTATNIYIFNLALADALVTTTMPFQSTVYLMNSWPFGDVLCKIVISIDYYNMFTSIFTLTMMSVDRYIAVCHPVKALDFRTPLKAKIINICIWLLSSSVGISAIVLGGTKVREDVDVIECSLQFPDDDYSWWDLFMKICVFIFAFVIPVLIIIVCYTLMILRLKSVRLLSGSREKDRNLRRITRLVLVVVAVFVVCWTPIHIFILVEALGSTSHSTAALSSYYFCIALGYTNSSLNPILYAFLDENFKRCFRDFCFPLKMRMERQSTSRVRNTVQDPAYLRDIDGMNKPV

human kappa receptor = target: T5, human kappa receptor (Homo sapiens, UniProt P41145); assay: Calcium mobilization assay, CHO kappa cells expressing Gαqi5; type: cell-based; details: inactive = inactive up to 10 µM; for Kappa pEC50 (CL95%): calcium mobilization; for Kappa α± SEM: intrinsic activity, Emax ratio to standard agonist dynorphin A
T5 construct: expressed in transfected cells; host or cells: CHO cells stably co-expressing Gαqi5
T5 sequence (P41145 whole entry): as above

[9] = rat, pH 7.4, rat brain homogenate, 37°C
[10] = inactive = inactive up to 10 µM
[11] = [3H]deltorphin-2, n ≥ 3, read-out: Ki ± SEM, Delta
[12] = calcium mobilization, inactive = inactive up to 10 µM, read-out: mu pEC50 (CL95%) (converted)
[13] = [3H]DAMGO, n ≥ 3, read-out: Ki ± SEM, mu

SMILES	Delta pEC50 (CL95%) (delta-opioid receptor [1])	Delta α± SEM (delta-opioid receptor [1])	Ki (delta-opioid receptor [2])	EC50 [3]	100 x k, rate constant of degradation ([4]; 37°C)	half-life at 0.25 mM [4, 9]	Bias factor (CL95%) (mu receptor)	logD [5]	EC50 [6]	EC50 (human mu receptor)	mu α±SEM (human mu receptor; [10])	Ki [7]	Ki [8]	Kappa pEC50 (CL95%) (human kappa receptor)	Kappa α± SEM (human kappa receptor)	also measured
Cc1cc(O)cc(C)c1C[C@H](N)C(=O)N1CCC[C@H]1C(=O)N[C@@H](Cc1ccccc1)C(=O)N[C@@H](Cc1ccccc1)C(N)=O [analog 1, Dmt-Pro-Phe-Phe-NH2]	inactive	inactive	0.56 ± 0.041 µM	0.0117 µM	3.31 ± 0.12 per min	0.347 ± 0.02 h	0.48 (0.34–0.62)	2.16	0.00309 µM	0.00251 µM	0.85 ± 0.02	0.00054 ± 3e-05 µM				fold higher potency than EM-2 (human mu receptor; calcium mobilization, mu): 3 fold
Cc1cc(O)cc(C)c1C[C@H](N)C(=O)NC[C@@H](C)C(=O)N[C@@H](Cc1ccccc1)C(=O)N[C@@H](Cc1ccccc1)C(N)=O [analog 7, Dmt-(R)-β ^ 2 -Ala-Phe-Phe-NH2]	inactive	inactive	0.571 ± 0.055 µM	0.0191 µM	0.51 ± 0.03 per min	2.26 ± 0.0717 h	0.67 (0.49–0.84)	2.33	0.00457 µM	0.000692 µM	0.95 ± 0.03	0.00031 ± 9e-05 µM	0.807 ± 0.046 µM	inactive	inactive	
NC(=O)[C@H](Cc1ccccc1)NC(=O)C[C@@H](Cc1cccc2ccccc12)NC(=O)[C@@H]1CCCN1C(=O)[C@@H](N)Cc1ccc(O)cc1 [analog 12, Tyr-Pro-(R)-β ^ 3 -1-Nal-Phe-NH2]	inactive	inactive	> 1 µM	0.145 µM	1.28 ± 0.05 per min	0.898 ± 0.0683 h	0.23 (0.06–0.41)	3.01	0.0776 µM	0.0479 µM	0.97 ± 0.02		> 1 µM	inactive	inactive	
Cc1cc(O)cc(C)c1C[C@H](N)C(=O)N[C@H](C)CC(=O)N[C@@H](Cc1ccccc1)C(=O)N[C@@H](Cc1ccccc1)C(N)=O [analog 9, Dmt-(R)-β ^ 3 -Ala-Phe-Phe-NH2] (H-[Dmt][d(β3hA)]FF-NH2; N-terminus assumed)	inactive	inactive	0.286 ± 0.018 µM	0.00214 µM	1.90 ± 0.04 per min	0.605 ± 0.0467 h	0.27 (0.16–0.38)	2.09	0.000724 µM	0.000457 µM	1.00 ± 0.05	0.00014 ± 7e-05 µM	0.89 ± 0.042 µM	inactive	inactive	
C[C@H](CC(=O)N[C@@H](Cc1ccccc1)C(=O)N[C@@H](Cc1ccccc1)C(N)=O)NC(=O)[C@@H](N)Cc1ccc(O)cc1 [analog 8, Tyr-(R)-β ^ 3 -Ala-Phe-Phe-NH2] (H-Y[d(β3hA)]FF-NH2; N-terminus assumed)	inactive	inactive	> 1 µM	0.0776 µM	0.82 ± 0.04 per min	1.4 ± 0.065 h	0.76 (0.55–0.98)	1.71	0.00741 µM	0.001 µM	0.99 ± 0.02	0.00044 ± 0.0001 µM	> 1 µM	inactive	inactive	
C[C@H](CNC(=O)[C@@H](N)Cc1ccc(O)cc1)C(=O)N[C@@H](Cc1ccccc1)C(=O)N[C@@H](Cc1ccccc1)C(N)=O [analog 6, Tyr-(R)-β ^ 2 -Ala-Phe-Phe-NH2]	inactive	inactive		14.1 µM	1.03 ± 0.07 per min		1.35 (1.15–1.55)	1.75	0.417 µM		0.88 ± 0.06		> 1 µM	inactive	inactive	Ki (delta-opioid receptor [2]; [11]): > 1 µM; β-Arrestin 2 Emax±sem [3]: ∼1 ^a; half-life at 0.25 mM ([4]; pH 7.4, 37°C): 1.11 ± 0.045 h; EC50 (human mu receptor; [12]): 0.0302 µM; Ki [7, 13]: 0.0468 ± 0.00518 µM
Cc1cc(O)cc(C)c1C[C@H](N)C(=O)N1CCC[C@@H](C(=O)N[C@@H](Cc2ccccc2)C(=O)N[C@@H](Cc2ccccc2)C(N)=O)C1 [analog 5, Dmt-(R)-Nip-Phe-Phe-NH2]	inactive	inactive	0.589 ± 0.028 µM	0.00363 µM	0.77 ± 0.06 per min	1.49 ± 0.05 h	−0.08 (−0.25-0.10)	1.8	0.0011 µM	0.000316 µM	1.00 ± 0.02	0.00014 ± 6e-05 µM	0.567 ± 0.039 µM	inactive	inactive	
NC(=O)[C@H](Cc1ccccc1)NC(=O)[C@H](Cc1ccccc1)NC(=O)[C@@H]1CCCN(C(=O)[C@@H](N)Cc2ccc(O)cc2)C1 [analog 4, Tyr-(R)-Nip-Phe-Phe-NH2]	inactive	inactive		0.0437 µM	1.05 ± 0.08 per min		−0.02 (−0.04-0.00)	1.68	0.0112 µM		0.99 ± 0.04		> 1 µM	inactive	inactive	Ki (delta-opioid receptor [2]; [11]): > 1 µM; β-Arrestin 2 Emax±sem [3]: 1.30 ± 0.03; half-life at 0.25 mM ([4]; pH 7.4, 37°C): 1.09 ± 0.04 h; EC50 (human mu receptor; [12]): 0.00269 µM; Ki [7, 13]: 0.00085 ± 0.00017 µM
Cc1cc(O)cc(C)c1C[C@H](N)C(=O)N1CCC[C@H]1C(=O)N[C@@H](CC(=O)N[C@@H](Cc1ccccc1)C(N)=O)Cc1cccc2ccccc12 [analog 13, Dmt-Pro-(R)-β ^ 3 -1-Nal-Phe-NH2]	inactive	inactive		0.00437 µM	1.69 ± 0.07 per min	0.68 ± 0.0667 h	0.27 (0.20–0.34)	3.16	0.00363 µM	0.0038 µM	0.77 ± 0.02			inactive	inactive	

— publication PMC9998502, “Functional selectivity of EM-2 analogs at the mu-opioid receptor” (Frontiers in Pharmacology, 2023)
